The results in this text go back to patent US20090170902A1, “COMPOUNDS WHICH POTENTIATE GLUTAMATE RECEPTOR AND USES THEREOF IN MEDICINE” (priority 2006, published 2009).

Each structure is given as a SMILES string.

The target in the experiment is T1, human GluR2 flip (unedited) AMPA receptor subunit (Homo sapiens, UniProt P42262).
T1 construct: expressed in transfected cells
T1 sequence (P42262 25-883 isoform P42262-2 limits assumed): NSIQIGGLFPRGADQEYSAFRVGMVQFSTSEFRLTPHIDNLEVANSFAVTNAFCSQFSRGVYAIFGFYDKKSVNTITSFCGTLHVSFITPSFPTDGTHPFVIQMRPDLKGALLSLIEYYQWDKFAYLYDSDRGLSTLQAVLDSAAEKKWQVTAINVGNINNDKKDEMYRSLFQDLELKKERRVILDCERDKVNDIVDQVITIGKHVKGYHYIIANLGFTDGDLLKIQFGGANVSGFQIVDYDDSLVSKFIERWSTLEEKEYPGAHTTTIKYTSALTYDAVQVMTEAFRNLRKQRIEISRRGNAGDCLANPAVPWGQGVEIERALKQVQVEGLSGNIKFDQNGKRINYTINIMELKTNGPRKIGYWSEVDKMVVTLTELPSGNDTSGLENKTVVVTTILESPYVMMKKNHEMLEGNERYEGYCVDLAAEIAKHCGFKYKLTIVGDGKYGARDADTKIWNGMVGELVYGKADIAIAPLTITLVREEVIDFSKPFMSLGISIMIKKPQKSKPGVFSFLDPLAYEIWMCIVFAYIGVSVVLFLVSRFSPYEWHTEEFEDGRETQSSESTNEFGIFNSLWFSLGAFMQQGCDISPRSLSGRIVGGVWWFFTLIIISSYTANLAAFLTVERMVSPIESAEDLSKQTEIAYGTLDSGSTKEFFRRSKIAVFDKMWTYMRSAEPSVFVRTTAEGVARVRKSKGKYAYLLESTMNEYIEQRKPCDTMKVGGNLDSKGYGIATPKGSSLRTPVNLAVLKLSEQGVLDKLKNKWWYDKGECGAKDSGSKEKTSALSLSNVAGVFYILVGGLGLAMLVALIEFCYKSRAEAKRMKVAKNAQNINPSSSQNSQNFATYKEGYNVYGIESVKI
Description: Calcium influx fluorescence assay (FLUO4, FLIPR). Format: cell-based. To be noted: HEK293; HEK 293 cells expressing human GluR2 flip (unedited); relative to fluorescence increase induced by cyclothiazide at maximum response; read-out: activity relative to cyclothiazide (at its maximal response). On the procedure: 384 well plates are prepared containing confluent monolayer of HEK 293 cells either stably expressing or transiently transfected with human GluR2 flip (unedited) AMPA receptor subunit. These cells form functional homotetrameric AMPA receptors. The tissue culture medium in the wells are discarded and the wells are each washed three times with standard buffer (80 μL) for the stable cell line (145 mM NaCl, 5 mM KCl, 1 mM MgCl2, 2 mM CaCl2, 20 mM N-[2-hydroxyethyl]-piperazine-N-[2-ethanesulfonic acid (HEPES), 5.5 mM glucose, pH 7.3) or with a Na-free buffer for the transient transfected cells (145 mM N-methyl-glucamine instead of NaCl). The plates are then incubated for 60 minutes in the dark with 2 μM FLUO4-AM dye (20 μL) (Molecular Probes, Netherlands) at room temperature to allow cell uptake of the FLUO-4AM, which is then converted to FLUO-4 by intracellular esterases which is unable to leave the cell. After incubation each well is washed three times with buffer (80 μL) (30 μL of buffer remained in each well after washing).
Compounds of the invention (or reference compounds such as cyclothiazide) are dissolved in dimethylsulfoxide (DMSO) at a stock concentration of 10 mM. These solutions are further diluted with DMSO using a Biomek FX (Beckman Coulter) in a 384 compound plate. Each dilution (1 μL) is transferred to another compound plate and buffer (50 μL) is added. An agonist stimulus (glutamate) plate is prepared by dissolving sodium glutamate in water to give a concentration of 100 mM. This solution is diluted with buffer to give a final concentration of 500 μM and dispensed into another 384-well plate (50 μL/well) using a Multidrop (Thermolabsystems).
The cell plate is then transferred into a fluorescence imaging plate based reader [such as the FLIPR384 (Molecular Devices)]. A baseline fluorescence reading is taken over a 10 to 240 second period, and then 10 μL from each plate containing a compound of the invention made up in standard buffer solution (in a concentration range from […]) is added (to give a final concentration in the range 30 μM to 3 pM). The fluorescence is read over 5 minute period. 500 μM glutamate solution (10 μL) is added (to give a final concentration of 100 μM). The fluorescence is then read over a 4 minute period. The activities of the compounds of the invention and reference compounds are determined by measuring peak fluorescence after the last addition. The activity is also expressed relative to the fluorescence increase induced by cyclothiazide at their maximum response (i.e. greater than 30 μM).
The assay described above is believed to have an effective limit of detection of a pEC50 in the region of 3.5-4.0 due to the limitations of compound solubility. The pEC50 result is generally considered to be accurate +/−0.3.
`CC(C)S(=O)(=O)N[C@@H]1CCO[C@@H]1c1ccc(-c2ccc(C#N)cc2)cc1` (relative stereo) [Example 7, N-[cis-2-(4′-cyano-4-biphenylyl)tetrahydro-3-furanyl]-2-propanesulfonamide]: the Emax is not below 50%.
For `CC(C)S(=O)(=O)N[C@@H]1CCO[C@@H]1c1ccc(-c2ccc(F)cn2)cc1` (relative stereo) [Example 3, N-{cis-2-[4-(5-fluoro-2-pyridinyl)phenyl]tetrahydro-3-furanyl}-2-propanesulfonamide], the Emax is not below 50%.
For `CC(=O)c1cccc(-c2ccc([C@H]3OCC[C@H]3NS(=O)(=O)C(C)C)cc2)c1` (relative stereo) [Example 8, N-[cis-2-(3′-acetyl-4-biphenylyl)tetrahydro-3-furanyl]-2-propanesulfonamide], the Emax was not below 50%.
For `CC(C)S(=O)(=O)N[C@@H]1CCO[C@@H]1c1ccc(-c2cncc(F)c2)cc1` (relative stereo) [Example 4, N-{cis-2-[4-(5-fluoro-3-pyridinyl)phenyl]tetrahydro-3-furanyl}-2-propanesulfonamide], the Emax is not below 50%.
For the compound `CC(C)S(=O)(=O)N[C@@H]1CCO[C@@H]1c1ccc(-c2ccc(F)nc2)cc1` (relative stereo) [Example 1, N-{cis-2-[4-(6-fluoro-3-pyridinyl)phenyl]tetrahydro-3-furanyl}-2-propanesulfonamide], the Emax was not below 50%.
Next, `CC(C)S(=O)(=O)N[C@@H]1CCO[C@@H]1c1ccc(-c2ccc(F)cc2)cc1` (relative stereo) [Example 6, N-[cis-2-(4′-fluoro-4-biphenylyl)tetrahydro-3-furanyl]-2-propanesulfonamide]: not below 50%; `CC(C)S(=O)(=O)N[C@@H]1CCO[C@@H]1c1ccc(-c2cccs2)cc1` (relative stereo) [Example 9, N-{cis-2-[4-(2-thienyl)phenyl]tetrahydro-3-furanyl}-2-propanesulfonamide]: not below 50%.
The figure for `Cc1ccc(-c2ccc([C@H]3OCC[C@H]3NS(=O)(=O)C(C)C)cc2)cn1` (relative stereo) [Example 2, N-{cis-2-[4-(6-methyl-3-pyridinyl)phenyl]tetrahydro-3-furanyl}-2-propanesulfonamide] is not below 50%.
Regarding `Cc1cncc(-c2ccc([C@H]3OCC[C@H]3NS(=O)(=O)C(C)C)cc2)c1` (relative stereo) [Example 5, N-{cis-2-[4-(5-methyl-3-pyridinyl)phenyl]tetrahydro-3-furanyl}-2-propanesulfonamide], the Emax was not below 50%.
